The first assay relates to HBV. The assay is described as follows: HBV-DNA antiviral assay using HepG2.117 cells (intracellular HBV DNA by qPCR). To be noted: HBV DNA inhibition, 3 days incubation, 2% DMSO. In kind it is cell-based, genotype D HBV. As for the experimental part: The following assay procedure describes the HBV antiviral assay, using HepG2.117 cells, which carry a stably integrated genotype D HBV genome under the control of a Tet-off promoter, and intracellular HBV DNA quantification as endpoint. Cell viability is assessed in parallel by measuring the intracellular ATP content using CellTiter-Glo 2.0 (Promega).
On day 0, HepG2.117 cells (which are maintained in routine cell culture with doxycycline present in the medium at a final concentration of 1 μg/mL) were seeded in 96-well plates (white with clear bottom) at a density of 2.0×10^4 cells/well (0.1 mL/well) in medium without doxycycline to induce pgRNA transcription and subsequent formation of HBV particles. The cells were incubated at 37° C. and 5% CO2.
On day 1, medium was removed from each well, the test articles were diluted in culture medium without doxcycyline and 100 μL was added to cell culture wells (9 concentrations, 4-fold dilution). For each plate, 6 untreated (merely DMSO) wells were included. The final concentration of DMSO in the culture medium was 2%. Each plate was prepared in duplicate (one for HBV DNA extraction, one for CellTiter-Glo 2.0 measurement). The cells were incubated at 37° C. and 5% CO2 for 3 days.
On day 4, cell viability was assessed using CellTiter-Glo 2.0 and cell lysates were prepared for HBV DNA extraction and subsequent quantification by qPCR.
HBV DNA Quantification by qPCR
Medium was removed from each well and 100 μL of 0.33% NP-40 in H2O was added to each well. Plates were sealed, incubated at 4° C. for 5 mins, vortexed extensively and centrifuged briefly. Next, 35 μL of lysate was added to 65 μL QuickExtract DNA Extraction Solution (Epicentre) in a PCR plate for each well. PCR plate was incubated at 65° C. for 6 mins, 98° C. for 2 mins and finally cooled to 4° C. HBV DNA was then quantified by qPCR with HBV-specific primers and probes as specified in Table 1 using the Bio-Rad SSOAdvanced Universal Probes Supermix on a CFX96 machine (Bio-Rad). The PCR cycle program consisted of 95° C. for 3 mins, followed by 40 cycles at 95° C. for 10 sec and 60° C. for 30 sec.
A DNA standard was prepared by dilution of an IDT gBlock corresponding to the amplicon with concentrations ranging from 10^2 to 10^8 copies/input (i.e. per 4 μL) and used to generate a standard curve by plotting Cq values vs. HBV DNA standard concentration. The quantity of HBV DNA in each sample was determined by interpolating from the standard curve.
Cell viability was calculated as follows: % Cell viability=(luminescence value of test sample)/(average luminescence value of 2% DMSO control)×100%. HBV DNA inhibition was calculated as follows: 100−(HBV DNA copy number of test sample)/(average HBV DNA copy number of 2% DMSO control)×100%. No normalization to entecavir was required due to the excellent dynamic window of this assay. The CC50, EC50 and EC90 values were determined by dose-response curves fitted by GraphPad Prism using “log (agonist) vs. response—Variable slope”.
In turn, `CC(C)Cc1cnn2c3c(c(=O)n(-c4ccc(-c5nncn5C)cc4)c12)C[C@@H](C)N(C(=O)c1ccc(Br)c(Cl)c1)C3` [Compound 60a, (11R)-12-(4-bromo-3-chlorobenzoyl)-11-methyl-7-[4-(4-methyl-1,2,4-triazol-3-yl)phenyl]-5-(2-methylpropyl)-2,3,7,12-tetraazatricyclo[7.4.0.0^{2,6}]trideca-1(9),3,5-trien-8-one] gave an EC50 of less than 50 nM. `Cc1nn[nH]c1-c1ccc(-n2c(=O)c3c(n4ncc(Cc5ccccc5)c24)CN(C(=O)c2ccc(Br)c(C(F)(F)F)c2)CC3)cc1` [Compound 35, 5-benzyl-12-[4-bromo-3-(trifluoromethyl)benzoyl]-7-[4-(4-methyl-1H-triazol-5-yl)phenyl]-2,3,7,12-tetrazatricyclo[7.4.0.0^2,6]trideca-1(9),3,5-trien-8-one]: the half-maximal effective concentration (EC50) was less than 50 nM.

The same assay, now with this note: Hepatitis B virus, 72 h, HBV DNA inhibition, 3 days incubation, 2% DMSO.
`CC(C)Cc1cnn2c3c(c(=O)n(-c4ccc(-c5n[nH]c(=O)n5C)cc4)c12)C[C@H](C)N(C(=O)c1ccc(Br)c(C(F)(F)F)c1)C3` (stereo in doubt) [Compound 81b, rac-(11S)-12-[4-bromo-3-(trifluoromethyl)benzoyl]-5-isobutyl-11-methyl-7-[4-(4-methyl-5-oxo-1H-1,2,4-triazol-3-yl)phenyl]-2,3,7,12-tetrazatricyclo[7.4.0.0^2,6]trideca-1(9),3,5-trien-8-one]: the EC50 is 50 to 500 nM. For `CNC(=O)c1ccc(-n2c(=O)c3c(n4ncc(CC5CC5)c24)CN(C(=O)c2ccc(Br)c(C(F)(F)F)c2)CC3)cc1` [Compound 24, 4-[12-[4-bromo-3-(trifluoromethyl)benzoyl]-5-(cyclopropylmethyl)-8-oxo-2,3,7,12-tetrazatricyclo[7.4.0.0^2,6]trideca-1(9),3,5-trien-7-yl]-N-methyl-benzamide], the EC50 is less than 50 nM.

As for `CNC(=O)c1ccc(-n2c(=O)c3c(n4ncc(Cc5ccccc5)c24)CN(C(=O)c2ccc(Br)c(C(F)(F)F)c2)[C@@H](C)C3)cc1` (stereo in doubt) [Compound 38b, N-methyl-4-[rac-(11S)-5-benzyl-12-[4-bromo-3-(trifluoromethyl)benzoyl]-11-methyl-8-oxo-2,3,7,12-tetrazatricyclo[7.4.0.0^2,6]trideca-1(9),3,5-trien-7-yl]benzamide], the EC50 is less than 50 nM. Molecule `Cc1nnnn1-c1ccc(-n2c(=O)c3c(n4ncc(Cc5ccccc5)c24)CN(C(=O)c2ccc(Br)c(C(F)(F)F)c2)[C@H](C)C3)cc1` (stereo in doubt) [Compound 46a, rac-(11R)-5-benzyl-12-[4-bromo-3-(trifluoromethyl)benzoyl]-11-methyl-7-[4-(5-methyltetrazol-1-yl)phenyl]-2,3,7,12-tetrazatricyclo[7.4.0.0^2,6]trideca-1(9),3,5-trien-8-one] showed an EC50 of less than 50 nM. As for `CNC(=O)c1ccc(-n2c(=O)c3c(n4ncc(CC5CCOC5)c24)CN(C(=O)c2ccc(Br)c(Cl)c2)CC3)cc1` (stereo not drawn) [Compound 17, 4-[12-(4-bromo-3-chloro-benzoyl)-8-oxo-5-(tetrahydrofuran-3-ylmethyl)-2,3,7,12-tetrazatricyclo[7.4.0.0^2,6]trideca-1(9),3,5-trien-7-yl]-N-methyl-benzamide], the EC50 was less than 50 nM. On the same count and under the same terms, as for `C[C@H]1Cc2c(n3ncc(CC4CC4)c3n(-c3ccc(-c4nc(=O)on4C)cc3)c2=O)CN1C(=O)c1ccc(Br)c(C(F)(F)F)c1` (stereo in doubt) [Compound 93b, 2-methyl-3-[4-[rac-(11S)-12-[4-bromo-3-(trifluoromethyl)benzoyl]-5-(cyclopropylmethyl)-11-methyl-8-oxo-2,3,7,12-tetrazatricyclo[7.4.0.0^2,6]trideca-1(9),3,5-trien-7-yl]phenyl]-1,2,4-oxadiazol-5-one], the figure is less than 50 nM; as for `CC(C)Cc1cnn2c3c(c(=O)n(-c4ccc(-c5n[nH]c(=O)n5C)cc4)c12)C[C@@H](C)N(C(=O)c1ccc(Br)c(C(F)(F)F)c1)C3` (stereo in doubt) [Compound 81a, rac-(11R)-12-[4-bromo-3-(trifluoromethyl)benzoyl]-5-isobutyl-11-methyl-7-[4-(4-methyl-5-oxo-1H-1,2,4-triazol-3-yl)phenyl]-2,3,7,12-tetrazatricyclo[7.4.0.0^2,6]trideca-1(9),3,5-trien-8-one], less than 50 nM. As to `O=C(c1ccc(Br)c(Cl)c1)N1CCc2c(n3ncc(Cc4ccccc4)c3n(-c3ccc(-n4ccc(C(F)(F)F)n4)cc3)c2=O)C1` [Compound 13, 5-benzyl-12-(4-bromo-3-chloro-benzoyl)-7-[4-[3-(trifluoromethyl)pyrazol-1-yl]phenyl]-2,3,7,12-tetrazatricyclo[7.4.0.0^2,6]trideca-1(9),3,5-trien-8-one], the EC50 fell in the range of 50 to 500 nM. Regarding `CNC(=O)c1ccc(-n2c(=O)c3c(n4ncc(CC5CCC5)c24)CN(C(=O)c2ccc(Br)c(C(F)(F)F)c2)[C@H](C)C3)cc1` (stereo in doubt) [Compound 37a, N-methyl-4-[rac-(11R)-12-[4-bromo-3-(trifluoromethyl)benzoyl]-5-(cyclobutylmethyl)-11-methyl-8-oxo-2,3,7,12-tetrazatricyclo[7.4.0.0^2,6]trideca-1(9),3,5-trien-7-yl]benzamide], the EC50 is less than 50 nM. With `CC(C)Cc1cnn2c3c(c(=O)n(-c4ccc5c(c4)nnn5CCO)c12)C[C@@H](C)N(C(=O)c1ccc(Br)c(C(F)(F)F)c1)C3` (stereo in doubt) [Compound 108a, rac-(11R)-12-[4-bromo-3-(trifluoromethyl)benzoyl]-7-[1-(2-hydroxyethyl)benzotriazol-5-yl]-5-isobutyl-11-methyl-2,3,7,12-tetrazatricyclo[7.4.0.0^2,6]trideca-1(9),3,5-trien-8-one], the EC50 is less than 50 nM. Molecule `CC(C)Cc1cnn2c3c(c(=O)n(-c4ccc(-c5nncn5C)cc4)c12)C[C@@H](C)N(C(=O)c1ccc(Cl)c(C(F)(F)F)c1)C3` (stereo in doubt) [Compound 67a, rac-(11R)-12-[4-chloro-3-(trifluoromethyl)benzoyl]-5-isobutyl-11-methyl-7-[4-(4-methyl-1,2,4-triazol-3-yl)phenyl]-2,3,7,12-tetrazatricyclo[7.4.0.0^2,6]trideca-1(9),3,5-trien-8-one] displayed an EC50 of less than 50 nM. Take `C[C@H]1Cc2c(n3ncc(CC4CCC4)c3n(-c3ccc(-c4nncn4C)cc3)c2=O)CN1C(=O)c1ccc(Br)c(Cl)c1` (stereo in doubt) [Compound 48b, rac-(11S)-12-(4-bromo-3-chloro-benzoyl)-5-(cyclobutylmethyl)-11-methyl-7-[4-(4-methyl-1,2,4-triazol-3-yl)phenyl]-2,3,7,12-tetrazatricyclo[7.4.0.0^2,6]trideca-1(9),3,5-trien-8-one]: the EC50 fell in the range of 50 to 500 nM. `CC(C)Cc1cnn2c3c(c(=O)n(-c4ccc5c(c4)nnn5C)c12)C[C@@H](C)N(C(=O)c1ccc(Br)c(C(F)(F)F)c1)C3` (stereo in doubt) [Compound 95a, rac-(11R)-12-[4-bromo-3-(trifluoromethyl)benzoyl]-5-isobutyl-11-methyl-7-(1-methylbenzotriazol-5-yl)-2,3,7,12-tetrazatricyclo[7.4.0.0^2,6]trideca-1(9),3,5-trien-8-one] gave a concentration giving a half-maximal response (EC50) of less than 50 nM.

The EC50 is the concentration needed to bring the measured effect to its halfway point.

The record behind these values is US11820773B2, “Tricyclic compounds” (ALIGOS THERAPEUTICS, INC., priority 2020, dated 2023).
